Laboratory results reported in US4357331A, “7αMethoxycephalosporin derivatives” (Meiji Seika Kaisha, Ltd., priority 1978, dated 1982).
≈ marks a conversion by molar mass, not a printed value. Where two headings read alike, the source gives them in different places.

Assays:
[1] = system: Staphylococcus aureus 209p; experiment: MIC, minimum inhibitory concentration (nutrient agar, 37° C., 20 hours); type: cell-based
Escherichia coli No. 29 = experiment: in vivo antibacterial activity (ED50) in mice challenged intraperitoneally with E. coli No. 29; set-up: species or system Escherichia coli No. 29; Male ddY mice; conditions: male ddY mice, fatality over a week, Probit method
[2] = system: Serratia marcescens No. 1; experiment: MIC, minimum inhibitory concentration (nutrient agar, 37° C., 20 hours); type: cell-based; conditions: read-out: MIC (minimum inhibitory concentration)
Klebsiella pneumoniae = experiment: as above; type: cell-based; conditions: read-out: MIC (minimum inhibitory concentration)
[3] = system: Bacillus anthracis No. 119; experiment: microbe, parasite or virus in culture; type: cell-based; conditions: NO.119, 20 h, read-out: MIC (minimum inhibitory concentration)
[4] = system: Pseudomonas aeruginosa IFO 3080; experiment: MIC, minimum inhibitory concentration (nutrient agar, 37° C., 20 hours); type: cell-based; conditions: IFO3080
Proteus morganii = experiment: as above; type: cell-based; conditions: Morganella morganii
Citrobacter freundii = experiment: as above; type: cell-based
Escherichia coli 255 = experiment: as above; type: cell-based
[5] = Serratia marcescens No. 1, 37° C., 20 hours

SMILES	MIC [1] [µg/mL]	ED50 with Escherichia coli No. 29 (Escherichia coli No. 29; oral) [mg/mouse]	ED50 with Escherichia coli No. 29 (Escherichia coli No. 29; subcutaneous) [mg/mouse]	MIC ([2]; Serratia marcescens, NO.1, 20 h) [µg/mL]	MIC (Klebsiella pneumoniae; 20 h) [µg/mL]	MIC [3] [µg/mL]	MIC [4] [µg/mL]	MIC (Proteus morganii) [µg/mL]	MIC (Citrobacter freundii) [µg/mL]	MIC (Escherichia coli 255) [µg/mL]	MIC [2, 5] [µg/mL]	MIC (Klebsiella pneumoniae; 37° C., 20 hours) [µg/mL]
CO[C@@]1(NC(=O)Cc2cccs2)C(=O)N2C(C(=O)O)=C(COC(N)=O)CS[C@@H]21 [Cefoxitin, cefoxitin, reference compound]	1.56 (≈ 3.65 µM)	> 5.0	0.43	3.13 (≈ 7.32 µM)	3.13 (≈ 7.32 µM)	3.13 (≈ 7.32 µM)	100 (≈ 234 µM)	6.25 (≈ 14.6 µM)	50 (≈ 117 µM)	50 (≈ 117 µM)		
CC1=C(C(=O)O)N2C(=O)[C@@H](NC(=O)[C@H](N)c3ccccc3)[C@H]2SC1 [Cephalexin, cephalexin, reference compound]		1.60										
COC1(NC(=O)CSCC(N)C(=O)O)C(=O)N2C(C(=O)OC(C)OC(=O)C(C)(C)C)=C(CSc3nnnn3C)CSC21 (stereo not drawn) [Example 19, 1-pivaloyloxyethyl 7β-(2D-2-amino-2-carboxy)ethylthioacetamido-7α-methoxy-3-(1-methyl-1H-tetrazol-5-yl)thiomethyl-3-cephem-4-carboxylate]		0.25	0.17									
COC1(NC(=O)CSCCC(N)C(=O)O)C(=O)N2C(C(=O)[O-])=C(C[n+]3ccc(C(N)=O)cc3)CSC21 (stereo not drawn) [Ex. 12, 7β-(3DL-3-amino-carboxy)propylthioacetamido-7α-methoxy-3-(p-carbamoylpyridinium)methyl-3-cephem-4-carboxylic acid]	6.25 (≈ 11.6 µM)					1.56 (≈ 2.89 µM)	6.25 (≈ 11.6 µM)	12.5 (≈ 23.2 µM)	25 (≈ 46.3 µM)	3.13 (≈ 5.8 µM)	12.5 (≈ 23.2 µM)	6.25 (≈ 11.6 µM)
COC1(NC(=O)CSCCN)C(=O)N2C(C(=O)O)=C(CSc3nnnn3C)CSC21 (stereo not drawn) [Ex. 1, 7β-aminoethylthioacetamido-7α-methoxy-3-(1-methyl-1H-tetrazol-5-yl)thiomethyl-3-cephem-4-carboxylic acid]	1.56 (≈ 3.28 µM)					0.39 (≈ 0.82 µM)	25 (≈ 52.6 µM)	6.25 (≈ 13.1 µM)	1.56 (≈ 3.28 µM)	6.25 (≈ 13.1 µM)	3.13 (≈ 6.58 µM)	3.13 (≈ 6.58 µM)
COC(=O)C(N)CSCC(=O)NC1(OC)C(=O)N2C(C(=O)OC(C)OC(C)=O)=C(CSc3nnnn3C)CSC21 (stereo not drawn) [Example 18, 1-acetoxyethyl 7β-(2D-2-amino-2-methoxycarbonyl)ethylthioacetamido-7α-methoxy-3-(1-methyl-1H-tetrazol-5-yl)thiomethyl-3-cephem-4-carboxylate]		0.36	0.24									
COC1(NC(=O)CSCCNC(N)=O)C(=O)N2C(C(=O)O)=C(CSc3nnnn3C)CSC21 (stereo not drawn) [Ex. 2, 7β-ureidoethylthioacetamido-7α-methoxy-3-(1-methyl-1H-tetrazol-5-yl)thiomethyl-3-cephem-4-carboxylic acid]	3.13 (≈ 6.04 µM)					0.78 (≈ 1.5 µM)	25 (≈ 48.2 µM)	3.13 (≈ 6.04 µM)	25 (≈ 48.2 µM)	12.5 (≈ 24.1 µM)	3.13 (≈ 6.04 µM)	1.56 (≈ 3.01 µM)
CCOC(=O)C(N)CSCC(=O)NC1(OC)C(=O)N2C(C(=O)OCOC(=O)C(C)(C)C)=C(CSc3nnnn3C)CSC21 (stereo not drawn) [Example 17, pivaloyloxymethyl 7β-(2D-2-amino-2-ethoxycarbonyl)ethylthioacetamido-7α-methoxy-3-(1-methyl-1H-tetrazol-5-yl)thiomethyl-3-cephem-4-carboxylate]		0.86	0.046									
COC1(NC(=O)CSCCC(N)C(=O)O)C(=O)N2C(C(=O)O)=C(CSc3nnnn3C)CSC21 (stereo not drawn) [Ex. 11, sodium 7β-(3D-3-amino-3-carboxy)propylthioacetamido-7α-methoxy-3-(1-methyl-1H-tetrazol-5-yl)thiomethyl-3-cephem-4-carboxylate]	3.13					0.2	100	3.13	25	0.78	0.78	1.56
